The numbers were not newly measured in patent publication US5922690A (priority 1997, dated 1999), which cites them from elsewhere.

The test system of the data set is rabbits. To be noted: in vivo.

For dermatan sulfate [DS], for the setting “rabbit”, the “Multiple of the antithrombotic dose injected without increasing bleeding” value is listed as “up to forty times”.
On to heparin, for which the “Bleeding from a standardized incision in a rabbit's ear, heparin versus DS” value was “much greater”.
